The values below are quoted from earlier work in patent publication US20030035836A1, “Oral controlled release pharmaceutical composition for once-a-day therapy for the treatment and prophylaxis of cardiac and circulatory diseases” (priority 2001, published 2003).

The conditions of the data set: oral administration; considerable first pass metabolism.

With `COc1ccccc1OCCNCC(O)COc1cccc2[nH]c3ccccc3c12` (racemic) [Carvedilol, 1-(9H-carbazol-4-yloxy)-3-[[2-(2-methoxyphenoxy)ethyl]amino]-2-propanol], the absolute bioavailability was 25%.
